From patent US8481543B2, “Compounds for treating parasitic disease” (Oregon Health & Science University, priority 2008, dated 2013)
Like-named read-outs stand apart in the source and are kept apart here.

Tests used:
[1] = tested on: Plasmodium falciparum 7G8 strain (multidrug-resistant); test: Antiplasmodial fluorescence-based SyBr Green assay, 7G8 strain; type: cell-based; details: read-out: Antiplasmodial IC50, 7G8 strain
Protocol: (§1) Parasite culture and drug susceptibility assays: Four different laboratory strains of P. falciparum were cultured in human erythrocytes by standard methods under a low oxygen atmosphere (5% O2, 5% CO2, 90% N2) in an environmental chamber (Trager, W., and J. Jensen. 1976. Human malaria parasites in continuous culture. Science 193:673-675). The culture medium was RPMI 1640, supplemented with 25 mM Hepes buffer, 25 mg/liter gentamicin sulfate, 45 mg/liter hypoxanthine, 10 mM glucose, 2 mM glutamine, and 0.5% Albumax II. The parasites were maintained in fresh human erythrocytes suspended at a 2% hematocrit in complete medium at 37° C. Stock cultures were sub-passaged every 3 to 4 days by transfer of infected red cells to a flask containing complete medium and uninfected erythrocytes.
(§2) In vitro antimalarial activity of the test compounds was assessed by a fluorescence-based method described previously by Smilkstein M., N. Sriwilaijaroen, J. X. Kelly, P. Wilairat, and M. Riscoe. 2004. Simple and inexpensive fluorescence-based technique for high-throughput antimalarial drug screening. Antimicrob Agents Chemother 48:1803-6. The experiments were set up in triplicate in 96 well plates with two-fold dilutions of each compound across the plate in a total volume of 100 μl and at a final red blood cell concentration of 2% (v/v). Stock solutions of each compound were prepared by dissolving in DMSO at 10 mM. […] In every case, an additional determination was performed to ensure bracketing of the IC50 value by at least an order of magnitude. Automated pipeting and dilution was carried out by a programmable Precision 2000 robotic station (Bio-Tek, Winooski, Vt.). An initial parasitemia of 0.2% was attained by addition of normal uninfected red cells to a stock culture of asynchronous parasite infected red cells (PRBC). The plates were incubated for 72 hrs at 37° C. in an atmosphere of 5% CO2, 5% O2, and 90% N2. After this period the SyBr Green I dye-detergent mixture (100 μl) was added and the plates were incubated at room temperature for an hour in the dark and then placed in a 96-well fluorescence plate reader (Gemini-EM, […]) for analysis with excitation and emission wavelength bands centered at 497 and 520 nm, respectively.

[2] = tested on: Plasmodium falciparum Dd2 strain (multidrug-resistant); test: Antiplasmodial fluorescence-based SyBr Green assay, Dd2 strain; type: cell-based; details: read-out: Antiplasmodial IC50, Dd2 strain
Protocol: as §1, §2

[3] = tested on: Plasmodium falciparum D6 strain (chloroquine sensitive); test: Antiplasmodial fluorescence-based SyBr Green assay, D6 strain; type: cell-based
Protocol: as §1, §2

[4] = tested on: P. falciparum strains (D6, Dd2, Tm90.C2B, 7G8); test: Antiplasmodial SyBr Green assay, summary across strains; type: cell-based, Plasmodium falciparum; details: for IC50: Plasmodium falciparum
Protocol: as §1
as §2, with “An initial parasitemia of 0.2% was attained by addition of normal uninfected red cells to a stock culture of asynchronous parasite infected red cells (PRBC). The plates were incubated for 72 hrs at 37° C. in an atmosphere of 5% CO2, 5% O2, and 90% N2.” left out

[5] = tested on: Plasmodium falciparum Tm90.C2B strain (multidrug-resistant); test: Antiplasmodial fluorescence-based SyBr Green assay, Tm90.C2B strain; type: cell-based; details: read-out: Antiplasmodial IC50, Tm90.C2B strain
Protocol: as §1, §2

Plasmodium yoelii = test: Modified Thompson test, suppression of patent infection in mice; type: in vivo; details: P. yoelii in CF1 mice; gavage daily for 3 days; smears on 4th day; pharmachins free base in miglyol 812, chloroquine in water
Protocol: Efficacy of compounds in vivo. […] This test monitors suppression of patent infection in female CF1 Swiss albino mice (≈20 gm). A test begins with the inoculation of Plasmodium yoelii parasitized erythrocytes (100,000 to 500,000; obtained from a donor animal) on the first day of the experiment (D0). After 24 hours, the standard agents or pharmachin compounds were administered by gavage at daily intervals for three successive days. Initially the test compounds were examined at 128 mg/kg/day, 64 mg/kg/day, 16 mg/kg/day and 4 mg/kg/day and including a vehicle-only control. […] The parasite burden in each blood sample was determined by direct microscopic analysis of methanol-fixed, Giemsa-stained blood smears. […] The ED50 value is the dosage of drug required to achieve a 50% reduction in parasitemia relative to the vehicle-only control; non-linear regression analysis was employed to generate ED50s from the accumulated data.
Mice were split into groups of 3 each and animals were dosed by gavage at the following dosages: 128 mg/kg; 64 mg/kg; 16 mg/kg; and 3 mg/kg. The drugs were administered daily for 3 days and blood smears were taken on the 4th day. […] ED50 values were calculated by graphical analysis of the dose-response effect.

P. berghei (ANKA/GFP) = test: Modified 4 day test in infected mice; type: in vivo
Protocol: Follow-up studies with Pharmachin 128 were preformed in mice infected with P. berghei (ANKA/GFP) using a modified 4 day test. Animals (CF1) were inoculated (iv) with 1 million infected red blood cells, obtained from donor animals, and then randomly sorted into groups of 5 mice each.
In this set of experiments Pharmachin 128 was administered daily by gavage as the citrate salt dissolved in water (100 μl) for each of 4 days. Dosing was set at 64, 16, 4, 2, and 1 mg/kg/day, respectively, and including a no drug control. Blood films were prepared on the 5th day (i.e., the day after the final drug dose), fixed in methanol, stained with Giemsa, and viewed microscopically to assess parasitemia.

[6] = Plasmodium falciparum, multidrug-resistant 7G8 strain, 72 hrs, mean of at least two experiments in triplicate
[7] = Plasmodium falciparum, multidrug-resistant Dd2 strain, 72 hrs, mean of at least two experiments in triplicate
[8] = Plasmodium falciparum, D6, 72 h; read-out: Antiplasmodial IC50, D6 strain
[9] = multidrug-resistant Tm90.C2B strain, 72 hrs, mean of at least two experiments in triplicate
[10] = 64 mg/kg/day, gavage, 4 days, citrate salt
[11] = P. berghei in CF1 mice, citrate salt in water by gavage daily for 4 days, parasitemia on 5th day

Row | Compound | IC50 [1, 6] | IC50 [2, 7] | IC50 [3, 8] | IC50 [5, 9] | other results
1 | 5.7-Difluoro-3-Methyl-4-(3-t-butylaminpropyl-amino)-Quinoline [Pharmachin 130] | – | – | – | – | IC50 ([1]; multidrug-resistant 7G8 strain, 72 hrs, mean of at least two experiments in triplicate): 25.9 nM; IC50 ([2]; multidrug-resistant Dd2 strain, 72 hrs, mean of at least two experiments in triplicate): 21.9 nM; IC50 ([3]; chloroquine sensitive D6 strain; 72 hrs; mean of at least two experiments in triplicate; read-out: Antiplasmodial IC50, D6 strain): 15 nM
2 | Cc1cnc2cc(Cl)ccc2c1N1CCN(CCCN2CCN(c3c(C)cnc4cc(Cl)ccc34)CC2)CC1 [3-methyl-piperaquine] | 9.5 nM | 6.5 nM | 4.6 nM | – | –
3 | CCN(CC)CCCNC1=CCNc2cc(Cl)ccc21 [AQ-13, reference compound] | 12 nM | 8.1 nM | 7.2 nM | – | Antiplasmodial activity against all tested drug resistant strains ([4]; in words): high level of antiplasmodial activity
4 | Clc1ccc2c(NCCCNC34CC5CC(CC(C5)C3)C4)ccnc2c1 [AQ-13-AD, 7-Chloro-(3-adamantylamino)-aminopropylquinoline] | – | 4.2 nM | 3.8 nM | 4.9 nM | –
5 | O=C1C(O)=C([C@H]2CC[C@H](c3ccc(Cl)cc3)CC2)C(=O)c2ccccc21 [Atovaquone, reference compound] | – | 0.1 nM | 0.1 nM | 7700 nM | –
6 | CCN(CC)CCCC(C)Nc1ccnc2cc(Cl)ccc12 (stereo not shown) [Chloroquine, reference compound] | – | – | – | – | IC50 ([1]; Plasmodium falciparum, 7G8, 72 h): 55 nM; IC50 ([5]; TM90, 72 h): 144 nM; IC50 ([2]; Plasmodium falciparum, DD2, 72 h): 160 nM; IC50 ([3]; Plasmodium falciparum, D6, 72 h, read-out: Antiplasmodial IC50, D6 strain): 11.2 nM
7 | CCN(CC)CCCNc1c(C)cnc2cc(Cl)ccc12 [Pharmachin 112, 7-Chloro-3-Methyl-4-(3-(diethylamino)-propylamino)-Quinoline] | – | 17.7 nM | 12.8 nM | 16.6 nM | ED50 (50% reduction in parasitemia) (Plasmodium yoelii): 6.5 mg/kg/day
8 | CCN(CC)CCNc1c(C)cnc2cc(Cl)ccc12 [Pharmachin 127, 7-Chloro-3-Methyl-4-(3-(diethylamino)-ethylamino)-Quinoline] | – | 17.8 nM | 14.1 nM | 18.3 nM | –
9 | Cc1cnc2cc(Cl)ccc2c1NCCCNC(C)(C)C [Pharmachin 128, 7-Chloro-3-Methyl-4-(3-t-butylaminopropylamino)-quinoline] | 11.3 nM | 11.6 nM | 6.2 nM | 12 nM | IC50 ([4]; range over D6, Dd2, Tm90.C2B, 7G8, read-out: IC50 values ranging, all 4 P. falciparum strains): 6.2 to 12 nM; Animals recrudesced 2 weeks after the last dose (P. berghei (ANKA/GFP); 16 mg/kg/day group, gavage, 4 days, citrate salt): 2 of the 5; Bloodstream parasites on 5th day (P. berghei (ANKA/GFP); 16 mg/kg/day, gavage, 4 days, citrate salt): completely cleared; Bloodstream parasites on 5th day (P. berghei (ANKA/GFP); [10]): completely cleared; Parasitemia over full 30-day examination period (scored as cures) (P. berghei (ANKA/GFP); [10]): remained aparasitemic; ED50 (P. berghei (ANKA/GFP); [11]): 2.7 mg/kg/day; ED90 (P. berghei (ANKA/GFP); [11]): 4.7 mg/kg/day; ED50 (50% reduction in parasitemia) (Plasmodium yoelii): 2.5 mg/kg/day
10 | Cc1cnc2ccc(Cl)cc2c1NCCCNC(C)(C)C [Pharmachin 129, 6-Chloro-3-Methyl-4-(3-t-butylaminopropylamino)-Quinoline] | – | 127 nM | 94.8 nM | – | –
11 | C=C[C@H]1C[N@@]2CC[C@H]1C[C@H]2[C@H](O)c1ccnc2ccc(OC)cc12 [Quinine, reference compound] | 29.5 nM | 87 nM | 19 nM | 96 nM | –
12 | CCN(CC)CCCC(C)Nc1c(C)cnc2cc(Cl)ccc12 (stereo not shown) [Sontochin, 3-methyl-chloroquine, reference compound] | – | 11.3 nM | 8.6 nM | 13.8 nM | IC50 ([4]; range over strains as worded in text, read-out: IC50 values ranging, drug resistant strains of P. falciparum): 8.6 to 13.8 nM
